B1: rOaAEP3: recombinant Oldenlandia affinis asparaginyl endopeptidase OaAEP3 (protein)
chain: MVRYLAGAFQVVLLVVILSDIAISEERTDGYLKLPTEVSRFFRTPEQSSDGGDDSIGTRWAVLIAGSKGYDNYRHQADVCHAYQILKRGGLKDENIVVFMYDDIAYNESNPRPGVIINSPHGSDVYAGVPKDYTGDEVNAKNFLAAILGNKSAITGGSGKVVDSGPNDHIFIYYTDHGAPGVIGMPSKPYLYADELNDALRKKHASGTYKSMVFYLEACEAGSMFDGLLPDGLNIYALTASNTTEGSWCYYCPGQDAGPPPEYSVCLGDFFSIAWLEDSDVHNLRSETLNQQYHNVKNRISYASHATQYGDLKRGVEGLFLYLGSNPENDNYTFVDDNVVRPSSKAVNQRDADLVHFWEKFRKAPEGSSKKEEAQKQILEAMSHRVHIDSSINLIGKLLFGIEKGHKILTAVRSAGHPLVDDWACLRSLVRTFETHCGSLSQYGMKHTRTLANICNAGITEEQMAEAASQACVSIPSNPWSSHDGGFSA
modifications: Oldenlandia affinis OaAEP3
B2: rOaAEP4: recombinant Oldenlandia affinis asparaginyl endopeptidase OaAEP4 (protein)
chain: MVRYPAGAVLLLVVLSVVAVDGARDGYLKLPSEVSDFFRPRNTNDGDDSVGTRWAVLLAGSNGYWNYRHQADLCHAYQILKRGGLKDENIVVFMYDDIAYNEENPRPGVIINSPHGSDVYAGVPKDYTGDEVNAKNFLAAILGNKSAITGGSGKVVDSGPNDHIFIYYTDHGAPGVIGMPSKPYLYADELNDALRKKHASGTYKSMVFYLEACEAGSMFDGLLPDGLNIYALTASNTTEGSWCYYCPGQDAGPPPEYSVCLGDFFSIAWLEDSDVHNLRSETLNQQYHNVKNRISYASHATQYGDLKRGVEGLFLYLGSNPENDNYTFVDDNVVRPSSKAVNQRDADLVHFWEKFRKAPEGSSKKEEAQKQILEAMSHRVHIDSSINLIGKLLFGIEKGHKILTAVRSAGHPLVDDWACLRSLVRTFETHCGSLSQYGMKHTRTLANICNAGITEEQMAEAASQACVSIPSNPWSSHDGGFSA
modifications: OaAEP4 aa
notes: recombinant Oldenlandia affinis asparaginyl endopeptidase OaAEP4

Tested on: rOaAEP1b, rOaAEP3, rOaAEP4 and rOaAEP5
Experiment: Cyclization assay with rOaAEP1b, rOaAEP3, rOaAEP4 and rOaAEP5 (MALDI/ESI MS)
Assay type: biochemical, Oldenlandia affinis
Details: peptides with added AEP recognition residues, 280 μM, enzymes 19.7 μg mL^−1 total protein, MS
Description: Linear target peptides (280 μM, unless otherwise indicated) were incubated with rOaAEP1b, rOaAEP3, rOaAEP4 or rOaAEP5 (total protein concentration as indicated in the description of figures) in activity buffer (50 mM sodium acetate, 50 mM NaCl, 1 mM ethylenediaminetetraacetic acid [EDTA], 0.5 μM Tris(2-carboxyethyl)phosphine hydrochloride [TCEP], pH 5). The reaction was allowed to proceed for up to 22 hours at room temperature and was analysed by matrix-assisted laser desorption/ionization mass spectrometry (MALDI MS), high performance liquid chromatography (HPLC) or nuclear magnetic resonance (NMR) as appropriate.
Cyclization or inter-molecular ligation of linear target peptides was monitored by MALDI or ESI MS. In both cases, the reaction mixture (5-50 μL) was de-salted using C18 zip tips (Millipore) and eluted in 4 μL 50-75% v/v acetonitrile, 0.1% v/v trifluoroacetic acid (TFA).
For MALDI MS, a saturated MALDI matrix solution (α-cyano-4-hyroxycinnamic acid, CHCA, Bruker) prepared in 95% v/v acetonitrile, 0.1% v/v TFA was diluted 1:22 such that the final matrix solution comprised 90% v/v acetonitrile, 0.1% v/v TFA and 1 mM NH4H2PO4. Eluted samples were mixed 1:4 with the MALDI matrix, spotted onto a MALDI plate and analyzed by an Ultraflex III TOF/TOF (Bruker) in positive reflector mode. Data were analyzed using the flexAnalysis program (Bruker).
For ESI MS, 96 μl of 75% v/v acetonitrile, 01% v/v TFA was added to the de-salted sample. The sample was then injected into a MicroTOF Q (Bruker) and data was collected in positive ionisation mode. The mass of ligated or cyclized product was determined by charge deconvolution using the Compass DataAnalysis program (Bruker).
The ability of activated AEPs (rOaAEP1b, rOaAEP3, rOaAEP4 and rOaAEP5) to cyclize peptide substrates structurally unrelated to cyclotides was tested in the cyclization assay described in the Materials and Methods. The anti-malarial peptide R1 (Harris et al. (2009) J Biol Chem 284(14):9361-9371; Harris et al. (2005) Infect Immun 73(10):6981-6989); Bac2A, a linear derivative of the bovine peptide bactenecin (Wu and Hancock (1999) Antimicrob Agents Ch 43:1274-1276); and the anti-fungal peptide EcAMP1 (Nolde et al. (2011) J Biol Chem 286(28):25145-25153) were produced with additional AEP recognition residues and used as the substrates.
To investigate the sequence requirements for in vitro cyclization, R1 was used as a model peptide. The recognition residues added to this model peptide were sequentially trimmed to determine the minimal requirements for AEP-mediated cyclization. The N- and C-terminal recognition residues were also substituted with alternate amino acids to determine if particular classes of residues were preferred for cyclization by these recombinant AEPs. The ability of activated AEPs (rOaAEP1b, rOaAEP3, rOaAEP4 and rOaAEP5) to cyclize the R1 peptide with varied flanking sequences was then tested in the cyclization assay described in the Materials and Methods (FIG. 10; Table 3).

Molecule	cyclization of linear precursor peptide by recombinant AEPs
GLPVFAEFLPLFSKFGSRMHILKSTRNGL (R1) [anti-malarial peptide R1 produced with additional AEP recognition residues]	efficiently cyclized
GLPRLARIVVIRVARTRNGLP (Bac2A)	efficiently cyclized
GLPGSGRGSCRSQCMRRHEDEPWRVQECVSQCRRRRGGGDTRNGLP (additional AEP recognition residues; EcAMP1) [anti-fungal peptide EcAMP1 with additional AEP recognition residues]	efficiently cyclized

Tested on: target peptide-linker-ubiquitin-6xHis fusion protein
Experiment: AEP-mediated processing of target peptides fused to ubiquitin
Assay type: biochemical
Details: kalata B1-ubiquitin 260 μg mL^−1, AEP 19.7 μg mL^−1 total protein, 22 h, SDS-PAGE/anti-6xHis Western blot

Molecule	proportion of fusion protein enzymatically processed (loss of precursor)
rOaAEP5: recombinant Oldenlandia affinis asparaginyl endopeptidase OaAEP5	the bulk of the precursor was being enzymatically processed
B1	the bulk of the precursor was being enzymatically processed
B2	a smaller proportion of the precursor protein was processed

Tested on: rOaAEP1b
Experiment: Cyclization assay with rOaAEP1b (MALDI MS)
Assay type: biochemical, Oldenlandia affinis
Details: MALDI MS

rOaAEP1b, sequence (as listed by the source): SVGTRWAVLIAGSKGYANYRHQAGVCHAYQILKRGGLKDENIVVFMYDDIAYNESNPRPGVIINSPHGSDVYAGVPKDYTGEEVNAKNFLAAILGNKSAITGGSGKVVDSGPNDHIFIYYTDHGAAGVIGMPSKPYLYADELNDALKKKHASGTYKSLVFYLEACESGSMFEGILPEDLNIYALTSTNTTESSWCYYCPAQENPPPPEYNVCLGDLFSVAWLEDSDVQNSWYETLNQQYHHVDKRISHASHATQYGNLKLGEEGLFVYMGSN

Molecule	processing/cyclization by rOaAEP1b
VFAEFLPLFSKFGSRMHILK [native R1 peptide, reference compound]	No processing

Same assay, conditions: rOaAEP1b 12 μg mL^−1 total protein, 22 hours; peak area as percentage of total peak area of that peptide; average of three experiments

Molecule	Linear precursor (%)	Cyclic product (%)	Linear product (%)
GLVFAEFLPLFSKFGSRMHILKNG (rOaAEP1b-mediated processing) [SEQ ID NO: 28, R1 peptide derivative]	100%	–	–
VFAEFLPLFSKFGSRMHILKNGL (rOaAEP1b-mediated processing) [SEQ ID NO: 29, R1 peptide derivative]	27.7%	49.6%	27.7%
QLVFAEFLPLFSKFGSRMHILKNGL (rOaAEP1b-mediated processing) [SEQ ID NO: 30, R1 peptide derivative]	6.9%	93.1%	–
KLVFAEFLPLFSKFGSRMHILKNGL (rOaAEP1b-mediated processing) [SEQ ID NO: 31, R1 peptide derivative]	17.8%	82.2%	–
GLVFAEFLPLFSKFGSRMHILKNGL (rOaAEP1b-mediated processing) [SEQ ID NO: 27, R1 peptide derivative]	7.1%	92.9%	–
GLPVFAEFLPLFSKFGSRMHILKSTRNGLP (rOaAEP1b-mediated processing) [SEQ ID NO: 26, R1 peptide derivative]	21.2%	78.8%	–

Tested on: not listed separately
Experiment: Protease activity against fluorogenic substrate Z-AAN-MCA
Assay type: biochemical
Details: enzyme ~5 μg mL^−1 total protein, Z-AAN-MCA 100 μM, 37° C., 60 minutes
Description: FIG. 15 is a graphical representation of the activity of recombinant O. affinis AEPs (˜5 μg mL^−1 total protein) and rhuLEG (1 μg mL^−1 total protein) over time against the fluorogenic substrate Z-AAN-MCA (100 μM). Activity is tracked at 1 minute intervals at 37° C. for 60 minutes using excitation and emission wavelengths of 360 and 460 nm respectively. A single representative experiment is shown. RFU, relative fluorescence units.
To assay activity of recombinant AEPs (rOaAEP1b, rOaAEP3, rOaAEP4 or rOaAEP5) against both internally-quenched and other fluorescent peptides, substrate and enzyme were diluted as appropriate in activity buffer (50 mM sodium acetate, 50 mM NaCl, 1 mM EDTA, 0.5 μM TCEP, pH 5). To assay activity of recombinant human legumain (rhuLEG; R&D systems) against the same substrates, the enzyme was first activated by incubation in 50 mM sodium acetate, 100 mM NaCl, pH 4 (4 μL buffer/1 μL enzyme) for 2 hours at 37° C. Substrates and activated rhuLEG were diluted in 50 mM acetate, 0.1% v/v triton X 100, 0.5 μM TCEP pH 5.5 or in 50 mM MES, 250 mM NaCl, pH 5 as required. Diluted enzyme and substrate were added to black, flat bottomed microtiter plates in a total assay volume of 100-200 μL. The change in fluorescence intensity over time was monitored on a SpectraMax M2 (Molecular Devices) using excitation/emission wavelengths of 320/420 nm (IQF peptides) or 360/460 nm (other fluorescent peptides).
AEP activity has traditionally been tracked by monitoring cleavage of the fluorescent substrate Z-AAN-MCA (where Z is carboxybenzyl; MCA is 7-amido-4-methylcoumarin) [Saska et al. (2007) supra; Rotari et al. (2001) Biol. Chem. 382:953-959]. Cleavage C-terminal to the Asn liberates the fluorophore which then fluoresces to report substrate cleavage. […] They are Ac-YVAD-CHO, which is routinely used to identify AEP activity (Hatsugai et al. (2004) Science 305(5685): 855-858) and Ac-STRN-CHO, which represents the P1-P4 residues of the C-terminal kB1 cleavage site. These traditional routes of identifying AEP activity will therefore likely be ineffective for identification of AEPs with cyclizing ability.

Molecule	activity against Z-AAN-MCA
rOaAEP5: recombinant Oldenlandia affinis asparaginyl endopeptidase OaAEP5	nor rOaAEP1b, rOaAEP3, rOaAEP4 or rOaAEP5 (FIG. 15) had detectable activity
B1	nor rOaAEP1b, rOaAEP3, rOaAEP4 or rOaAEP5 (FIG. 15) had detectable activity
B2	nor rOaAEP1b, rOaAEP3, rOaAEP4 or rOaAEP5 (FIG. 15) had detectable activity

Source: patent publication US20190225652A1, “GENERATION OF PEPTIDES” (Hexima Limited, priority 2015, published 2019)
